Source: the NIST ThermoML archive (doi:10.1016/j.tca.2014.05.022)
Where “and” joins values, the source holds several entries; their conditions need not be identical. Identical values can stand only once. ± gives the expanded uncertainty stated by the source.

Settings: DTA; for Normal melting temperature: Crystal

Row | SMILES | Triple point temperature (Crystal 1) | Triple point temperature (Crystal 2) | Normal melting temperature | Triple point temperature (Crystal 3)
1 | CCCCCCCCCCCCCCCCO [1-hexadecanol] | 323.3 ± 0.87 K and 323 ± 0.9 K | 322.3 ± 0.9 K and 322.2 ± 0.9 K | 50 ± 0.5 °C | –
2 | CCCCCCCCCCO [decan-1-ol] | 280.6 ± 0.9 K and 280.8 ± 0.9 K | 280.2 ± 0.9 K and 279.9 ± 0.9 K | 7.5 ± 0.5 °C | 276.2 ± 0.9 K and 277.5 ± 0.9 K
3 | CCCCCCCCO [octan-1-ol] | 258.7 ± 0.9 K and 258.3 ± 0.9 K | 255 ± 0.5 K and 256 ± 0.9 K | -14.4 ± 0.5 °C | –
4 | CCCCCCCCCCCCCCCCCCO [1-octadecanol] | 331.6 ± 0.9 K | 331 ± 0.9 K and 330.6 ± 0.9 K | 58.5 ± 0.5 °C | –
5 | CCCCCCCCCCCCCCO [1-tetradecanol] | 311.2 ± 0.9 K and 311.4 ± 0.9 K | 310.2 ± 0.9 K and 310.4 ± 0.9 K | 38.2 ± 0.5 °C | –
6 | CCCCCCCCCCCCO [dodecan-1-ol] | 297.8 ± 0.9 K and 297.4 ± 0.9 K | 296.4 ± 0.9 K | 24.7 ± 0.5 °C and 24.2 ± 0.5 °C | –
